Measured values reported in publication PMC7399811, “Analogues of a Cyclic Antimicrobial Peptide with a Flexible Linker Show Promising Activity against Pseudomonas aeruginosa and Staphylococcus aureus” (Antibiotics, 2020).
Values after ≈ are worked out from the molar mass of the structure shown. Square brackets hold non-standard residues; d marks the D form. Peptide text beside a SMILES is read from it. Bip = N[C@@H](Cc1ccc(-c2ccccc2)cc1)C(=O)O; 2Nal = N[C@@H](Cc1ccc2ccccc2c1)C(=O)O; Dab = NCC[C@H](N)C(=O)O; AEEA = NCCOCCOCC(=O)O

Assays:
[1] = test system: P. aeruginosa ATCC 27853; experiment: Time-kill kinetics; format: cell-based; conditions: for kind of activity in time-kill experiments: P. aeruginosa; for effect on CFU: P. aeruginosa late exponential phase (OD600 ~0.1)
Description: (§1) The killing kinetics of compound 11 (Figure 1A–D) were performed in two types of experiments on approximately 5 × 10^5 (exponential phase) and 5 × 10^7 (late exponential phase) colony forming units (CFU). […] Colistin and chloramphenicol was used as control antibiotics against P. aeruginosa and S. aureus, respectively. Chloramphenicol was chosen against S. aureus because initial experiments indicated 11 to be bacteriostatic. Time-kill experiments were performed on balanced exponentially growing cultures of S. aureus ATCC 29213 or P. aeruginosa ATCC 27853. We used balanced cultures, as described in Oddo et al.. In brief, overnight cultures were prepared in MHB broth at 37 °C, with shaking. Overnight cultures, were back diluted and grown exponentially for no less than 8–10 generations, before experimentation. When experiments were done at OD600 = 0.0005 ~5 × 10^5, the cultures were back diluted into fresh MHB, heated to 37 °C from an exponentially growing culture. In the late exponential phase, cultures were simply kept in the exponential phase, until OD600 = 0.1, before experimentation.

[2] = test system: red blood cells; conditions: at 150 µM peptide; 0.5% v/v RBC in PBS, 1 h 37 °C, absorbance 414 nm, normalized to melittin (100%) and PBS (0%)
Description: A total of 150 µL of 5 µM melittin was added to the positive control wells 1-6H of a V-shaped 96-well polypropylene plate and left overnight. The melittin solution was removed and the positive control wells were washed 3 times with 150 µL PBS. Afterwards, a 2.5 µM melittin solution was added to the positive control wells. For the assay, 0-negative blood in EDTA was used. Blood was washed by mixing 3 mL of PBS with 1 mL of whole blood, and centrifuged for 8 min at 3000 rpm. The supernatant was discarded and 4 mL of PBS added, mixed gently, and centrifuged. This wash cycle was repeated but the last centrifuge velocity was raised to 4000 rpm. Next, 40 µL red blood cells (RBC) was suspended in 8 mL of PBS to achieve an RBC suspension of 0.5% volume/volume (v/v). Peptide solutions were prepared at 600 µM, two times the highest concentration. A total of 150 µL peptide solution was transferred to row A. Next, 75 µL PBS was transferred to wells B1 to G12, as well as H7-12 (negative control), and the peptides were serially diluted two-fold. Then, 75 µL RBC suspension was added to all wells and the plate was covered with a Microseal® film and incubated for 1 h at 37 °C. Next, the plate was centrifuged for 10 min at 4000 rpm. Subsequently, 60 µL supernatant was transferred into the corresponding wells of a clear, polystyrene, flat-bottomed 96-well ELISA plate. The absorbance was read at λ = 414 nm with a VersaMaxTM Tunable Microplate Reader and the data were evaluated on Softmax® Pro. The results were normalized with respect to the average positive (100%) and negative (0%) controls, as described previously [43].

[3] = test system: P. aeruginosa ATCC 27853; format: cell-based
Description: (§2) Bacterial strains (E. coli ATCC 29522, S. aureus ATCC 29213, A. baumannii ATCC 19606, and P. aeruginosa ATCC 27853) were grown overnight on LB agar plates at 37 °C. Overnight cultures were prepared by inoculation of two to three colonies in 10 mL non-cation adjusted Mueller–Hinton broth (MHB) media (BD BBLTM Beef extract powder, BD BactoTMCasamino acids, and DIFCO soluble starch). Bacterial inoculum for MIC testing was prepared as balanced cultures, as previously described. The bacterial suspension was adjusted using MHB to an OD600 of 0.1, approximately 1·10^8 colony forming units (CFU/mL), and then diluted 1:200 in MHB, to give a final bacterial suspension of 5·10^5 CFU/mL, as described by Wiegand et al.. […] For MIC determination, all peptides were measured in triplicates using the protocol described by Wiegand et al. for “antimicrobial peptides that require the presence of acetic acid/BSA”. In brief, 20 µL peptide solution and gentamycin solution was transferred to column 1 of 96-well plates. Next, 10 µL 0.2% BSA; 0.01% acetic acid MHB media was transferred to column 2–11. Subsequently, peptides were serially diluted two-fold in the MIC plate and 90 µL bacterial suspension was transferred to all wells in column 1–11. Next, 100 µL bacterial suspension was transferred to column 12 D–F (growth control) and 100 µL media to column 12 A–C (sterility control). After an overnight incubation at 37 °C of the MIC plates, MIC values were determined as the lowest concentration at which there was no visible bacterial growth. For the inoculum control, 10 µL of solution from a positive-growth control well from each bacterial strain was dissolved in 990 µL phosphate-buffered saline (PBS) (1:100 dilution) in an Eppendorf tube. This solution was vortexed and 100 µL transferred to another Eppendorf tube containing 900 µL PBS (1:10 dilution) and vortexed. Then, 100 µL of each dilution was spread onto the MHB media plates, in triplicates, to achieve a CFU dilution of 1:1000 and 1:10,000, respectively. The plates were incubated overnight at 37 °C. The colonies were counted and 50 colonies were expected on the 1:10,000 plates and 500 on the 1:1000 plates.

[4] = test system: S. aureus ATCC 29213; format: cell-based
Description: as §2

[5] = test system: A. baumannii ATCC 19606; format: cell-based; conditions: for Minimum inhibitory concentration AB: ATCC 19606
Description: as §2

[6] = test system: E. coli ATCC 29522; format: cell-based; conditions: for Minimum inhibitory concentration EC: ATCC 29522
Description: as §2

[7] = test system: S. aureus ATCC 29213; experiment: Time-kill kinetics; format: cell-based
Description: as §1

[8] = P. aeruginosa late exponential phase, 5× MIC

Row | Molecule | kind of activity in time-kill experiments [1] | effect on CFU ([1]; 1× MIC) | reduction in CFU [1, 8] [log] | percent hemolytic activity against red blood cells (%H) [2] [%] | Minimum inhibitory concentration PA [3] [µg/mL] | Minimum inhibitory concentration SA [4] [µg/mL] | Minimum inhibitory concentration AB [5] [µg/mL] | Minimum inhibitory concentration EC [6] [µg/mL] | activity in MIC assays ([5]; A. baumannii) | activity in MIC assays ([6]; E. coli) | reduction in viable bacterial counts ([1]; P. aeruginosa exponential phase (~5 × 10^5 CFU), 1× MIC) | reduction in CFU ([1]; P. aeruginosa exponential phase, 3–5× MIC, within the first hour) [log] | reduction in CFU ([1]; P. aeruginosa late exponential phase, 3× MIC) [log] | reduction in CFU ([7]; S. aureus exponential phase, 1× MIC) [log] | reduction in CFU ([7]; S. aureus exponential phase, 3× MIC and 5× MIC) [log] | reduction in CFU ([7]; S. aureus late exponential phase, 5× MIC, regrowth after 24 h) [log]
1 | colistin [reference compound] | bactericidal | virtually no effect | 1 | – | – | – | – | – | – | – | – | – | – | – | – | –
2 | NCCCC[C@@H]1NC(=O)[C@H](Cc2ccc3ccccc3c2)NC(=O)COCCOCCNC(=O)[C@H](Cc2ccc(-c3ccccc3)cc2)NC(=O)[C@H](CCCCN)NC(=O)[C@H](CCCCN)NC(=O)[C@H](Cc2ccc3ccccc3c2)NC(=O)[C@H](CCCCN)NC(=O)[C@H](CC(N)=O)NC1=O [BSI-9, cyclo(Lys-Nal-Lys-Lys-Bip-O2Oc-Nal-Lys-Asn), reference compound] (cyclo(K[2Nal]KK[Bip][AEEA][2Nal]KN)) | – | – | – | 33 | 16 (≈ 11.5 µM) | 32 (≈ 23 µM) | 32 (≈ 23 µM) | 64 (≈ 46.1 µM) | – | – | – | – | – | – | – | –
3 | NCCCC[C@@H]1NC(=O)[C@H](Cc2ccc3ccccc3c2)NC(=O)COCCOCCNC(=O)[C@H](Cc2ccc(-c3ccccc3)cc2)NC(=O)[C@H](CCCCN)NC(=O)[C@H](CCCCN)NC(=O)[C@H](Cc2ccccc2)NC(=O)[C@H](CCCCN)NC(=O)[C@H](CC(N)=O)NC1=O [compound 5] (cyclo(KFKK[Bip][AEEA][2Nal]KN)) | – | – | – | 4 | 32 (≈ 23.9 µM) | >64 | >64 | >64 | – | – | – | – | – | – | – | –
4 | N=C(N)NCCC[C@@H]1NC(=O)[C@H](Cc2ccc3ccccc3c2)NC(=O)[C@H](CCN)NC(=O)[C@H](CC(N)=O)NC(=O)[C@H](CCN)NC(=O)[C@H](Cc2ccc3ccccc3c2)NC(=O)COCCOCCNC(=O)[C@H](Cc2ccc(-c3ccccc3)cc2)NC(=O)[C@H](CCN)NC1=O [compound 11] (cyclo([Dab][2Nal]R[Dab][Bip][AEEA][2Nal][Dab]N)) | bactericidal | virtually no effect | 3 | 36 | – | – | 32 (≈ 24 µM) | 32 (≈ 24 µM) | no activity | no activity | ~ 2 log | > 3 | 1 | 2 | > 3 | 3
5 | N=C(N)NCCC[C@@H]1NC(=O)[C@H](CC(N)=O)NC(=O)[C@H](CCN)NC(=O)[C@H](Cc2ccc3ccccc3c2)NC(=O)COCCOCCNC(=O)[C@H](Cc2ccc(-c3ccccc3)cc2)NC(=O)[C@H](CCN)NC(=O)[C@H](CCN)NC(=O)[C@H](Cc2ccc3ccccc3c2)NC1=O [compound 10] (cyclo(R[2Nal][Dab][Dab][Bip][AEEA][2Nal][Dab]N)) | – | – | – | 66 | 2 (≈ 1.5 µM) | 2 (≈ 1.5 µM) | 32 (≈ 24 µM) | 32 (≈ 24 µM) | – | – | – | – | – | – | – | –
